This note sets out measurements from BindingDB's records for doi:10.1128/AAC.01184-06 (University of California, 2007).

The assay can be described thus: Protection against Bacillus anthracis lethal toxin-mediated cytotoxicity in mouse RAW264.7 cells assessed as change in viability after 24 hrs by WST1 dye reduction assay. A general note: Tetrazolium dyes change colour on reduction, which living cells bring about.
Regarding `CC(C)COC[C@H](CN(Cc1ccccc1)c1ccccc1)N1CCCC1`, the IC50 (usually the concentration that gives 50% inhibition) was determined as 4800 nM. For `CN(C)CCCn1cc(C2=C(c3c[nH]c4ccccc34)C(=O)NC2=O)c2ccccc21` [2-[1-(3-dimethylaminopropyl)-indol-3-yl]-3-(indol-3-yl)maleimide], the IC50 stood at 1500 nM. The result for `CCCCCCCCCCCCC/C=C/[C@@H](O)[C@H](CO)N(C)C` [(E)-(2S,3R)-2-Dimethylamino-octadec-4-ene-1,3-diol] reads 2300 nM.
